Laboratory results taken from patent US10781224B2, “Bis(oxymethyl)phosphinic acid and biogenic metal salts thereof as regulators of plant growth and development” (priority 2016, dated 2020).

What was measured:
[1] = system: rice (Diamant variety); assay: Rice seed treatment with BHMPA salts: germination energy and germination rate; assay type: in vivo
Procedure, shortened: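 Corn, winter wheat and rice seeds (50 per dish, on filter paper) were soaked for 1 h in BHMPA or its metal salts at 1·10^−6-1·10^−12%, with water as control. Germination energy was read on day 4 and germination rate on day 8 for wheat and day 7 for rice and corn, following GOST 12038-84, as the mean of four replicates.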

[2] = system: rice (Diamant variety); assay: Rice seed treatment with BHMPA salts: germinating power; assay type: in vivo
Procedure, shortened: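 Seeds (50 per Petri dish on two layers of filter paper) soaked 1 h in BHMPA or its Ca, Mg, Na, Co, Mn, Cu or Zn salts at 1·10^−6-1·10^−12%, with water controls. Germination energy read on day 4, germination on day 8 (wheat) or day 7 (rice, corn), as % means of four replicates. Germinating power taken as root and sprout length plus wet and dry mass per 100 seedlings.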

[3] = rice seed treatment, solution 1 · 10^−9%
[4] = seed treatment, concentration 1 · 10^−6%
[5] = seed treatment, concentration 1 · 10^−7%
[6] = seed treatment, concentration 1 · 10^−8%
[7] = seed treatment, concentration 1 · 10^−9%
[8] = seed treatment, concentration 1 · 10^−10%
[9] = seed treatment, concentration 1 · 10^−11%
[10] = seed treatment, concentration 1 · 10^−12%
[11] = rice seed treatment, comparison with Melaphen (Table XXXIII), solution 1 · 10^−9%
[12] = rice seeds, solution concentration 1 · 10^−6%
[13] = rice seeds, solution concentration 1 · 10^−7%
[14] = rice seeds, solution concentration 1 · 10^−8%
[15] = rice seeds, solution concentration 1 · 10^−9%
[16] = rice seeds, solution concentration 1 · 10^−10%
[17] = rice seeds, solution concentration 1 · 10^−11%
[18] = rice seeds, solution concentration 1 · 10^−12%
[19] = rice, vs control, 1·10^−9% solution

O.O.O=P([O-])(CO)CO.O=P([O-])(CO)CO.[Mn+2] [Mn-salt, Manganese BHMPA Salt]
Germination energy, % [1, 3]: 86.7% | Germination rate, % [1, 3]: 93.0% | Germination energy ([1]; rice, 1·10^−9% solution): 85.3% | Germination rate ([1]; rice, 1·10^−9% solution): 91.7% | Germination energy [1, 4]: 77.0% | Germination rate [1, 4]: 82.7% | Germination energy [1, 5]: 79.3% | Germination rate [1, 5]: 85.0% | Germination energy [1, 6]: 82.7% | Germination rate [1, 6]: 86.7% | Germination energy [1, 7]: 85.3% | Germination rate [1, 7]: 91.7% | Germination energy [1, 8]: 83.3% | Germination rate [1, 8]: 88.3% | Germination energy [1, 9]: 81.0% | Germination rate [1, 9]: 86.0% | Germination energy [1, 10]: 78.0% | Germination rate [1, 10]: 83.0% | optimum concentration for treating rice seeds before sowing ([2]; rice): 1·10^−9% | Length, root [2, 11]: 6.8 cm | Length, root, + % to control [2, 11]: 42% | Length, sprout [2, 11]: 4.2 cm | Length, sprout, + % to control [2, 11]: 35% | Mass, dry, root [2, 11]: 0.24 g/100 plantlings | Mass, dry, root, + % to control [2, 11]: 14% | Mass, dry, sprout [2, 11]: 0.28 g/100 plantlings | Mass, dry, sprout, + % to control [2, 11]: 12% | Mass, wet, root [2, 11]: 1.34 g/100 plantlings | Mass, wet, root, + % to control [2, 11]: 37% | Mass, wet, sprout [2, 11]: 2.34 g/100 plantlings | Mass, wet, sprout, + % to control [2, 11]: 55% | Length, root [2, 12]: 6.2 cm | Length, root, + % to control [2, 12]: 3% | Length, sprout [2, 12]: 2.7 cm | Length, sprout, + % to control [2, 12]: 8% | Mass, dry, root [2, 12]: 0.22 g/100 plantlings | Mass, dry, root, + % to control [2, 12]: 10% | Mass, dry, sprout [2, 12]: 0.29 g/100 plantlings | Mass, dry, sprout, + % to control [2, 12]: 11.5% | Mass, wet, root [2, 12]: 1.13 g/100 plantlings | Mass, wet, root, + % to control [2, 12]: 15% | Mass, wet, sprout [2, 12]: 1.80 g/100 plantlings | Mass, wet, sprout, + % to control [2, 12]: 5% | Length, root [2, 13]: 6.4 cm | Length, root, + % to control [2, 13]: 7% | Length, sprout [2, 13]: 2.9 cm | Length, sprout, + % to control [2, 13]: 16% | Mass, dry, root [2, 13]: 0.25 g/100 plantlings | Mass, dry, root, + % to control [2, 13]: 25% | Mass, dry, sprout [2, 13]: 0.36 g/100 plantlings | Mass, dry, sprout, + % to control [2, 13]: 38% | Mass, wet, root [2, 13]: 1.21 g/100 plantlings | Mass, wet, root, + % to control [2, 13]: 23% | Mass, wet, sprout [2, 13]: 2.12 g/100 plantlings | Mass, wet, sprout, + % to control [2, 13]: 23% | Length, root [2, 14]: 6.5 cm | Length, root, + % to control [2, 14]: 8% | Length, sprout [2, 14]: 3.1 cm | Length, sprout, + % to control [2, 14]: 24% | Mass, dry, root [2, 14]: 0.28 g/100 plantlings | Mass, dry, root, + % to control [2, 14]: 40% | Mass, dry, sprout [2, 14]: 0.41 g/100 plantlings | Mass, dry, sprout, + % to control [2, 14]: 58% | Mass, wet, root [2, 14]: 1.30 g/100 plantlings | Mass, wet, root, + % to control [2, 14]: 33% | Mass, wet, sprout [2, 14]: 2.26 g/100 plantlings | Mass, wet, sprout, + % to control [2, 14]: 31% | Length, root [2, 15]: 6.8 cm | Length, root, + % to control [2, 15]: 13% | Length, sprout [2, 15]: 3.3 cm | Length, sprout, + % to control [2, 15]: 32% | Mass, dry, root [2, 15]: 0.32 g/100 plantlings | Mass, dry, root, + % to control [2, 15]: 60% | Mass, dry, sprout [2, 15]: 0.44 g/100 plantlings | Mass, dry, sprout, + % to control [2, 15]: 69% | Mass, wet, root [2, 15]: 1.44 g/100 plantlings | Mass, wet, root, + % to control [2, 15]: 47% | Mass, wet, sprout [2, 15]: 2.41 g/100 plantlings | Mass, wet, sprout, + % to control [2, 15]: 40% | Length, root [2, 16]: 6.7 cm | Length, root, + % to control [2, 16]: 12% | Length, sprout [2, 16]: 3.0 cm | Length, sprout, + % to control [2, 16]: 12% | Mass, dry, root [2, 16]: 0.26 g/100 plantlings | Mass, dry, root, + % to control [2, 16]: 30% | Mass, dry, sprout [2, 16]: 0.39 g/100 plantlings | Mass, dry, sprout, + % to control [2, 16]: 50% | Mass, wet, root [2, 16]: 1.33 g/100 plantlings | Mass, wet, root, + % to control [2, 16]: 36% | Mass, wet, sprout [2, 16]: 2.30 g/100 plantlings | Mass, wet, sprout, + % to control [2, 16]: 34% | Length, root [2, 17]: 6.5 cm | Length, root, + % to control [2, 17]: 8% | Length, sprout [2, 17]: 2.9 cm | Length, sprout, + % to control [2, 17]: 16% | Mass, dry, root [2, 17]: 0.23 g/100 plantlings | Mass, dry, root, + % to control [2, 17]: 15% | Mass, dry, sprout [2, 17]: 0.36 g/100 plantlings | Mass, dry, sprout, + % to control [2, 17]: 38% | Mass, wet, root [2, 17]: 1.29 g/100 plantlings | Mass, wet, root, + % to control [2, 17]: 31% | Mass, wet, sprout [2, 17]: 2.21 g/100 plantlings | Mass, wet, sprout, + % to control [2, 17]: 28% | Length, root [2, 18]: 6.3 cm | Length, root, + % to control [2, 18]: 5% | Length, sprout [2, 18]: 2.7 cm | Length, sprout, + % to control [2, 18]: 8% | Mass, dry, root [2, 18]: 0.20 g/100 plantlings | Mass, dry, root, + % to control [2, 18]: 0% | Mass, dry, sprout [2, 18]: 0.32 g/100 plantlings | Mass, dry, sprout, + % to control [2, 18]: 23% | Mass, wet, root [2, 18]: 1.27 g/100 plantlings | Mass, wet, root, + % to control [2, 18]: 29% | Mass, wet, sprout [2, 18]: 2.14 g/100 plantlings | Mass, wet, sprout, + % to control [2, 18]: 24% | dry mass of the roots increased by [2, 19]: 60% | dry mass of the sprouts increased by [2, 19]: 69% | length of the root increased by [2, 19]: 13% | length of the sprout increased by [2, 19]: 32% | wet mass of the roots increased by [2, 19]: 47% | wet mass of the sprouts increased by [2, 19]: 40%
